The subject of one data set is MONOMAC 6 cells. Kind of data set: Response to DNMT inhibitors after pretreatment. Format: cell-based. The following applies: pretreated 64 nM 48 hours; 100 nM DAC or 100 nM AZA.
Another data set relates to AML cells. Kind of data set: Sensitization of AML cells to other therapeutic agents. The note with it: for effect with TKI in inhibiting viability: human AML cells.
For a further data set, the system named is pancreatic cancer. Kind of data set: Anti-tumor effects in solid tumors. Format: cell-based. The text has this: (§1) Besides in hematopoietic malignancy, FTO also plays oncogenic function in solid tumors, such as glioblastoma (GBM) and lung squamous cell carcinoma (LUSC). To broaden the application of the FTO inhibitors in additional cancers, expression of FTO in various types of cancers was adopted from cBioPortal for Cancer Genomics (http://www.cbioportal.org/).
(§2) Cell culture: For leukemia cells, U937 and MV4-11 were obtained from American Type Culture Collection (ATCC) and cultured in endotoxin-free RPMI1640 supplemented with 10% fetal bovine serum (FBS) (Gemini Bio-Products); K562 (ATCC) was cultured in IMDM with 10% FBS; NOMO-1, ML-2, NB4 were obtained from DSMZ and kept in RPM11640 with 10% FBS; SKNO-1 (DSMZ) was maintained in RPM11640 with 10% FBS and 10 ng/ml GM-CSF; MA9.3ITD (MLL-AF9 plus FLT3-ITD-transformed human CD34^+ cord blood) and MA9.3RAS (MLL-AF9 plus NRasG12D-transformed human CD34^+ cord blood), established by Dr. James Mulloy (30), were maintained in IMDM supplemented with 20% FBS. AML patient-derived primary cells were kept in IDMD supplemented with 20% FBS, 10 ng/ml human cytokines SCF, TPO, FLT3 ligand, IL-3, and IL-6. The glioblastoma cell lines, including 8MGBA, A172 and U87MG were originally maintained by Dr. David Plas from University of Cincinnati, and cultured in RPMI1640 with 10% FBS. Breast tumor cell lines, including ZR-75-1 and MDA-MB-231, were purchased from ATCC, and cultivated in RPMI1640 with 10% FBS. The cell lines from lung cancer, H1993, H2009, and H1437, and pancreatic cancer cells Capan-1 and miAPACA2 were kindly provided by Dr. Ravi Salgia from City of hope, and maintained in RPMI1640 with 10% FBS. All the cells are not among commonly misidentified cells lines, and were tested for Mycoplasma contamination yearly using a PCR Mycoplasma Detection Kit (Applied Biological Materials Inc.). In order to prevent potential contamination, all the mediums were supplemented with Penicillin-Streptomycin (15140122, Life Technologies) and Plasmocin prophylactic (Applied Biological Materials Inc.) according to the manufacture's instruction.

A further data set has as its system Glioma. Kind of data set: Anti-tumor effects in solid tumors. Format: cell-based.
Text: as §1, §2

The test system of another data set is breast tumors. Kind of data set: Anti-tumor effects in solid tumors. The class given is cell-based.
Text: as §1, §2

Data set [1] can be described thus: Solubility and uptake after i.p. injection (dissection). The following applies: yellow/orange crystals in abdomen. The class given is physicochemical, mice. As to the method: Mice from PDX mouse model were treated with compound of formula (I) via i.p. injection and later dissected.
Data set [2] relates to AML patient-derived CD34+ cells. Kind of data set: Cell viability of AML patient-derived CD34+ cells. Format: cell-based, human. The following applies: 100 nM formula (I), 200 nM formula (II), 48 hours.
The test system of another data set is NOMO-1 cells. Kind of data set: Cell apoptosis assay. The following applies: 48 hour; 50, 200, 400 nM formula (I); 100, 500, 1000 nM formula (II). The class given is cell-based. On the procedure: Cell cycle and apoptosis assays: Propidium Iodide (PI) DNA staining was chosen to assess the cells located at G0/G1, S, and G2/M stages; while Hoechest 33342 and Pyronin Y was selected to evaluate cells at G0, G1, and S/G2/M phases. For PI staining, 1*10^6 cells were collected, washed once with PBS, and suspended in 1 ml buffer with 0.05 mg/ml PI, 0.1% trisodium citrate, 0.02 mg/ml ribonuclease A, 0.3% NP-40, incubated at 37° C. for 30 minutes, and then applied to flow cytometer directly. As Hochest 33342/Pyronin Y staining, the cells were collected, washed, and re-suspended in 1 ml cell culture medium, stained with 10 μg/ml Hochest 33342 at 37° C. for 45 minutes, and further stained with 0.5 μg/ml Pyronin Y for additional 15 minutes at 37° C. The samples were transferred onto ice before subjected to flow cytometry. Cell apoptosis was validated with PE Annexin V Apoptosis Detection Kit I (559763, BD Biosciences) according to the instructed protocol. Flow cytometry was performed with Fortessa X20 and the related results were analyzed with FlowJo V10 software.

In data set [3] the test system is PD-L1 and PD-L2 in AML cells (MONOMAC 6). Kind of data set: Expression of PD-L1 and PD-L2 upon DNMT inhibitor treatment. The note with it: for expression of PD-L1/2: in AML.
Protocol: Expression of PD-L1, PD-L2, and m^6A abundance upon DNMT inhibitor treatment in AML cells was analyzed. MONOMAC 6 cells were treated with PBS, 1 μM, 3 μM, and 5 μM DAC for 48 hours.
The subject of a further data set is MA9.3ITD AML cells. Kind of data set: Xenograft AML mouse model with MA9.3ITD cells. The note with it: cells pretreated 100 nM 48 hours; 2 mg/kg/day every other day i.p., ten treatments.
The subject of a further data set is NB4 cells. Kind of data set: Combination with DNMT inhibitors, cell growth. Format: cell-based. The following applies: 48 hours, 256 nM formula (IIa). As to the method:
Cell proliferation was measured. […] This experiment was repeated with NB4 cells. […] Synergistic inhibitory effect of FTO inhibitor together with DNMT inhibitor on cell proliferation was observed.
NB4 AML cells were treated with 256 nM compound of formula (IIa), 1000 nM AZA, 100 nM DAC, or their combinations for 48 hours. Effects of compound of formula (IIa), DAC, AZA and combined effects of compound of formula (IIa) with either DAC or AZA on […] AML cell growth was measured (FIG. 9D).

A further data set concerns HONO-1 AML cells. Kind of data set: Combination with DNMT inhibitors, cell growth. Format: cell-based. The following applies: 256 nM formula (IIa), 48 hours. As to the method:
HONO-1 AML cells were treated with 256 nM compound of formula (IIa), 1000 nM AZA, 100 nM DAC, or their combinations for 48 hours. Effects of compound of formula (IIa), DAC, AZA and combined effects of compound of formula (IIa) with either DAC or AZA on HONO-1 AML cell growth was measured (FIG. 9C).

The subject of data set [4] is primary murine MLL-AF9 (MA9) leukemic cells. Kind of data set: Colony forming assay. The note with it: 1 μM.
Protocol: MA9 murine leukemic cells were used for colony forming assay.
(§3) Serial colony-forming assay: The assay was employed as described previously with some modification (31). […] The dishes were incubated at 37° C. in a humidified atmosphere of 5% C02 in air for 7 days. Then, colony cells were collected and replated every 7 days with 20,000 cells/dish for 3 passages. Colony numbers were counted and compared for each passage.
The test system of data set [5] is murine FLT3ITD/NPM1mut leukemic cells. Kind of data set: Colony forming assay. The following applies: 10 nM or 50 nM.
Protocol: as §3
Data set [6] has as its system primary AML cells from a relapsed AML patient. Kind of data set: AML PDX mouse model. The following applies: i.p.
Protocol: (§4) The experiment was repeated with secondary BMT with MA9 leukemic cells. […] 1×10^6 mononuclear cells (MNCs) were isolated from bone marrow of the AML patients and transplanted into NRGS recipient mice. Drug treatment (5 mg/kg/day, every other day treatment, 10 times in total) was started from day 8 after transplantation.
As PDX mouse models, 1×10^6 AML patient derived cells were transplanted into NRGS recipient mice intravenously, and drug treatment was started from 7 days later.

Protocol for MA9 murine AML cells: as §4
The study was done following secondary BMT with murine MA9 cells, where drug treatment was initiated 7 days after BMT. […] Treatment strategy for DAC: 0.1 mg/kg/day, three times for one week, two weeks in total, i.p. injection.
The Lin^− progenitor cells were retrovirally transduced with MSCV-Neo-MA9 construct through two rounds of ‘spinoculation’ as described previously (31). […] For secondary BMT assays, primary leukemic mouse bone marrow cells (CD45.2+) were collected and sorted by flow cytometry when the mice developed full-blown AML. The cells were injected into sub-lethally irradiated (570 rads) secondary recipient mice with 0.1×10^6 donor cells per mouse via tail vein injection.
Protocol for MA9.3ITD AML cells: For xenograft AML models with NRGS mice, the leukemia AML cells, with high endogenous FTO expression, were pretreated with 100 nM FTO inhibitors for 48 hours before transplantation, and drug treatment was started at day 11 after transplantation.
Xenograft AML mouse models and AML PDX mouse models: NRG-SGM3 mice were used for both ‘human-in-mouse’ xeno-transplanation models and PDX models. […] For xenograft mouse, 0.1×10^6 MA9.3ITD cells were transplanted into NRGS recipient mice intravenously. Drug treatment was started from 10 days after transplanatation.

Regarding `C(=N\NC1=NCCN1)/c1c2ccccc2c(/C=N/NC2=NCCN2)c2ccccc12` [formula (I)], in the data set with MONOMAC 6 cells, the “inhibition of cell proliferation by DAC or AZA after pretreatment” value is reported as “increased inhibition in cell proliferation”. Further, the “sensitization to ATRA, DNR, Ara-C, Aza and DAC” value with AML cells is on record as “sensitize AML cells”. Also, the “effect with TKI in inhibiting viability” value in the data set with AML cells is on record as “synergize with TKI”. In addition, the growth entry with pancreatic cancer, in the data set with Glioma and in the data set with breast tumors was “growth disadvantage” in each case. Moreover, the solubility and uptake entry in data set [1] is “extreme low solubility and uptake”. Besides, the cell viability result in data set [2] was “significantly decreased cell viability of AML”. Also, in the data set on NOMO-1 cells, the cell apoptosis entry is “dose-dependent increase in cell apoptosis”.
With `Nc1ncn([C@@H]2O[C@H](CO)[C@@H](O)[C@H]2O)c(=O)n1` [AZA, 5-azacytidine], the “expression of PD-L1/2” value in data set [3] is given as “upregulation of PD-L1/2”.
On to `Nc1ncn([C@H]2C[C@H](O)[C@@H](CO)O2)c(=O)n1` [DAC, 5-aza-2′-deoxycytidine], for which the “expression of PD-L1 and PD-L2” value in data set [3] (MONOMAC 6, 1 μM, 3 μM, 5 μM, 48 hours) is “induced expression of PD-L1 and PD-L2 in a dose dependent manner”. Also, in data set [3], the “expression of PD-L1/2” value is on record as “upregulation of PD-L1/2”.
For the compound `Cc1noc(C)c1-c1cc(Cl)c(Nc2ccccc2C(=O)NO)c(Cl)c1` [FB23-2, reference compound], the “survival (Kaplan-Meier)” value in the data set on MA9.3ITD AML cells is on record as “lived significantly longer than the control groups”.
On to `O=C(O)c1cc(-c2ccc(-c3ccccc3)cc2)nc2ccccc12` [formula (IIa)], for which the “effect with DAC on cell growth” value in the data set with NB4 cells (100 nM DAC) and with HONO-1 AML cells (100 nM DAC) was “synergistic effects” in each case. Moreover, the “effect with AZA on cell growth” value in the data set with NB4 cells (1000 nM AZA) and with HONO-1 AML cells (1000 nM AZA) was “synergistic effects” in each case. The colony forming activity result in data set [4] was “decreased colony forming activity”; in data set [5] (b415), “dose dependent decreased colony forming activity”. The “inhibitory effect on colony forming activity compared with formula (II)” value in data set [4] and in [5] was “slightly stronger inhibitory effect” throughout.
For `Cc1c(-c2ccc(-c3ccccc3F)cc2)nc2ccc(F)cc2c1C(=O)O` [formula (II)], the “effect with DAC on survival (Kaplan-Meier)” value with MA9 murine AML cells (5 mg/kg/day FTO inhibitor, DAC 0.1 mg/kg/day i.p.) is on record as “synergistic effect”. For the same compound, the “anti-leukemia effects (delaying leukemogenesis, improving survival)” value in the data set with MA9 murine AML cells (5 mg/kg/day every other day, ten treatments, i.p. or i.v. (micelle)) is recorded as “promising anti-leukemia effects”. Moreover, in [6] (5 mg/kg/day every other day, 10 times, in PBS), the “anti-leukemia effect, survival (Kaplan-Meier)” value is listed as “strong anti-leukemia effect”. For the same compound, in [6] (hCD45 and hCD33 positive cells at day 26), the “anti-leukemia effect, engraftment of AML patient cells into bone marrow” value is listed as “strong anti-leukemia effect”. Further, the “sensitization to ATRA, DNR, Ara-C, Aza and DAC” value with AML cells is given as “sensitize AML cells”. Besides, the “effect with TKI in inhibiting viability” value in the data set on AML cells is “synergize with TKI”. The growth entry in the data set on pancreatic cancer, with Glioma and in the data set on breast tumors was “growth disadvantage” in each case. Besides, the cell viability result in [2] is reported as “significantly decreased cell viability of AML”. Also, in the data set with NOMO-1 cells, the cell apoptosis result was “dose-dependent increase in cell apoptosis”.

The record behind these values is patent US20220370434A1, “METHODS AND COMPOSITIONS FOR TREATING CANCER” (City of Hope, priority 2019, published 2022).
